Format in all cases: functional
The subject of assay [1] is Saccharomyces cerevisiae. As to the kind of experiment: (§1) MMV: Growth assays were conducted using the prototrophic S. cerevisiae strain JHY222. Each MMV compound (0.1 mM) was tested in minimal media containing dextrose as a carbon source (Yeast Nitrogen Base, Dextrose; YNBD). The growth rate in the presence of each MMV compound was calculated as follows: (i) the first 10 OD readings were averaged and subtracted from all OD readings of the corresponding curve to set the baseline of the growth curve to zero, and (ii) the area under the curve (AUC) was then calculated as the sum of all OD readings. […] A relative growth value was calculated as follows: AUC(DRUG) - AUC(DMSO)/AUC(DMSO); where AUC(DMSO) represents growth measured in a DMSO control well that was on the same microtiter plate of the drug-treated culture.

Assay [2] concerns Saccharomyces cerevisiae. Described as §1, with “ethanol and glycerol” for “dextrose”, “as” for “as a”, “sources” for “source”, “Ethanol, Glycerol; YNBEG).” for “Dextrose; YNBD).”.
For assay [3], the system named is Saccharomyces cerevisiae. Described as §1, with “rich” for “minimal”, “Extract, Peptone,” for “Nitrogen Base,”, “YPD).” for “YNBD).”.

For `COc1cccc(NC(=O)[C@H](C(C)C)n2c(=O)[nH]c3ccccc3c2=O)c1`, the results for the “Relative Growth” value in the assay with Saccharomyces cerevisiae [1], in the assay with Saccharomyces cerevisiae [2] and in the assay with Saccharomyces cerevisiae [3] were -0.0427, 0.0015 and 0.0157, respectively.
Regarding `COc1cccc(O)c1CN1CCC2(CCCN(Cc3ccc(F)cc3)C2)C1` (stereo not given), the results for the “Relative Growth” value with Saccharomyces cerevisiae [1], with Saccharomyces cerevisiae [2] and in the assay with Saccharomyces cerevisiae [3] were 0.0312, 0.0078 and 0.0333, respectively.
The matching figures for `O=c1cc(NC2CCN(CCCc3ccccc3)CC2)c2cc(Cl)ccc2o1`: 0.014, 0.0246 and -0.0193.
With `COc1ccc(-c2nc(N3CCN(C(=O)C4CCCCC4)CC3)c3c4c(sc3n2)CCCC4)cc1`, the “Relative Growth” value with Saccharomyces cerevisiae [1] is recorded as 0.0845; with Saccharomyces cerevisiae [2], -0.067; in the assay on Saccharomyces cerevisiae [3] it was -0.0342.
Take `Br.CCN(CC)S(=O)(=O)c1ccc(-c2csc(Nc3ccc(C)c(C)c3)n2)cc1`: the results for the “Relative Growth” value in the assay on Saccharomyces cerevisiae [1], with Saccharomyces cerevisiae [2] and with Saccharomyces cerevisiae [3] were 0.0785, -0.6715 and -0.1037, respectively.
Regarding `CN1CCN(c2ncnc3c2[nH]c2ccc(Cl)cc23)CC1`, the “Relative Growth” value in the assay with Saccharomyces cerevisiae [1] is 0.0494; in the assay on Saccharomyces cerevisiae [2], 0.0216; in the assay on Saccharomyces cerevisiae [3] it was 0.0011.
The matching figures for `CCOC(=O)C1=C(C)N=c2sc(=Cc3cc(Cl)ccc3O)c(=O)n2C1c1ccc(OC)cc1` (stereo not given): 0.1077, 0.0816 and -0.1268.
The matching figures for `Nc1ccc(-c2nc3cc(Cc4ccc5[nH]c(-c6ccc(N)cc6)nc5c4)ccc3[nH]2)cc1`: -0.0312, -0.1364 and -0.9832.
As to `Cl.OC(CNCc1ccccc1)Cn1c2ccccc2c2ccccc21` (stereo not given), the entries for the “Relative Growth” value with Saccharomyces cerevisiae [1], in the assay with Saccharomyces cerevisiae [2] and with Saccharomyces cerevisiae [3] were 0.0554, 0.03 and -0.0131, respectively.
As for `Cc1[nH]c(-c2ccc(F)cc2)cc1C(=O)NC1CCN(Cc2ccccc2)CC1`, the “Relative Growth” value in the assay on Saccharomyces cerevisiae [1] is 0.023; in the assay on Saccharomyces cerevisiae [2], 0.2181; in the assay on Saccharomyces cerevisiae [3] it was 0.0962.
For `CC1CCN(Cc2ccc(NC(=O)c3cc4ccc5cccnc5c4[nH]3)cc2)CC1`, the results for the “Relative Growth” value in the assay on Saccharomyces cerevisiae [1], in the assay on Saccharomyces cerevisiae [2] and with Saccharomyces cerevisiae [3] were 0.121, -0.318 and -0.0895, respectively.
The matching figures for `CCCCOc1ccc(C(=O)Nc2cc(C)on2)cc1`: -0.0653, -0.1988 and -0.0346.
The matching figures for `O=c1nc(C=Cc2ccc(Cl)cc2)oc2ccccc12`: 0.0988, 0.0415 and 0.0204.
The matching figures for `CCOc1cc(Cl)c(C(C)NC(=O)c2ccccc2)cc1OCC` (stereo not given): -0.0221, -0.1365 and 0.0477.
Take `O=C(CCc1ccco1)NC1CCN(CC2(c3ccc(Cl)cc3)CCC2)CC1`: the figures for the “Relative Growth” value in the assay on Saccharomyces cerevisiae [1], with Saccharomyces cerevisiae [2] and with Saccharomyces cerevisiae [3] were 0.003, 0.0483 and -0.0017, respectively.
`CCC1(C)CC(CCNCc2ccccc2O)(c2ccc(C)cc2)CCO1` (stereo not given): the “Relative Growth” value is 0.0584 in the assay with Saccharomyces cerevisiae [1], 0.156 in the assay on Saccharomyces cerevisiae [2] and 0.0044 in the assay on Saccharomyces cerevisiae [3].
The matching figures for `Cc1ccc(-c2cc(C(=O)Nc3ccc(S(=O)(=O)N4CCCCC4)cc3)[nH]n2)c(O)c1`: -0.0309, -0.0163 and -0.07.
As to `COc1ccccc1NC1=C(N2CCCCC2)C(=O)c2ccccc2C1=O`, the “Relative Growth” value in the assay on Saccharomyces cerevisiae [1] is reported as 0.0574; with Saccharomyces cerevisiae [2], 0.1747; in the assay with Saccharomyces cerevisiae [3] it was -0.0045.
With `CCC(c1ccccc1)c1nn2c(-c3cccs3)nnc2s1` (stereo not given), the “Relative Growth” value with Saccharomyces cerevisiae [1] was 0.0181; in the assay with Saccharomyces cerevisiae [2], 0.1287; in the assay with Saccharomyces cerevisiae [3] it was -0.0182.
The matching figures for `C=CCc1c(C)nc2ccccc2c1O`: -0.0056, 0.1025 and -0.0062.
Consider `CCOC(=O)c1cnc2ccc(Cl)cc2c1NCCCN(C)C`, for which the “Relative Growth” value in the assay with Saccharomyces cerevisiae [1] is on record as 0.0022; with Saccharomyces cerevisiae [2], -0.0264; with Saccharomyces cerevisiae [3] it was 0.0203.
The matching figures for `COc1ccc(C2N(C)c3ccccc3N2C)cc1`: -0.0194, 0.0867 and -0.0039.
The matching figures for `Cc1cc(=O)oc2c1ccc1oc(C(=O)c3ccccc3)c(C)c12`: -0.1287, -0.3574 and 0.0119.
The matching figures for `Cc1cccc(-n2ncc3c(O)nc(-n4nc(C)cc4NC(=O)c4cc5ccccc5o4)nc32)c1`: -0.2202, -0.0822 and -0.0284.
`Cc1ccc2c(C)nc(Nc3nc(C)cc(-c4ccccc4)n3)nc2c1`: the “Relative Growth” value in the assay with Saccharomyces cerevisiae [1] is on record as -0.1458; in the assay with Saccharomyces cerevisiae [2], -0.009; in the assay with Saccharomyces cerevisiae [3], -0.9982.
The matching figures for `Fc1ccc2[nH]c3c(NCCCN4CCOCC4)ncnc3c2c1`: 0.0125, 0.0735 and -0.0189.
For `O=C(CCc1ccccc1)c1ccccc1OCC(O)CN1CCCCC1` (stereo not given), the “Relative Growth” value is listed as 0.0209 with Saccharomyces cerevisiae [1], -0.1402 in the assay with Saccharomyces cerevisiae [2] and -0.6663 in the assay with Saccharomyces cerevisiae [3].
The matching figures for `O=C(CCl)NCCOc1ccc(Cl)cc1Cl`: 0.0391, -0.0052 and -0.0085.
The matching figures for `CN(C)c1ccc(C(O)(c2ccc(N(C)C)cc2)c2ccc(N(C)C)cc2)cc1` [METHYLROSANILINE]: -0.0186, -0.4054 and -0.0138.
The matching figures for `N=c1n(CCN2CCCCC2)c2ccccc2n1CC(=O)c1ccc(Cl)c(Cl)c1`: 0.1082, 0.0494 and -0.0413.
For the compound `CCc1ccc(Nc2cc(C)c3ccc(O)cc3n2)cc1.Cl`, the “Relative Growth” value in the assay with Saccharomyces cerevisiae [1] is 0.1514; in the assay with Saccharomyces cerevisiae [2], 0.0748; in the assay on Saccharomyces cerevisiae [3], -0.0071.
As for `CSC1=NC(=Nc2c(C)cccc2C)C2(CCC(C(C)(C)C)CC2)N1c1ccc(Cl)cc1` (stereo not given), the “Relative Growth” value in the assay with Saccharomyces cerevisiae [1] was 0.0233; with Saccharomyces cerevisiae [2], 0.0048; in the assay with Saccharomyces cerevisiae [3], -0.0962.
The matching figures for `COc1cccc(Cn2c(Oc3ccccc3)nc3c2c(=O)n(C)c(=O)n3C)c1`: -0.1115, -0.4904 and -0.0536.
Take `CCOc1ccc(-c2nonc2NC(=O)c2cccc(C)c2)cc1OCC`: the “Relative Growth” value with Saccharomyces cerevisiae [1] is listed as 0.0895; in the assay on Saccharomyces cerevisiae [2], -0.1269; in the assay on Saccharomyces cerevisiae [3] it was 0.0084.
Turning to `COc1cc(-c2nc(-c3ccccc3)c(-c3ccccc3)[nH]2)cc(OC)c1O`, the “Relative Growth” value is given as 0.0542 in the assay on Saccharomyces cerevisiae [1], -0.1558 with Saccharomyces cerevisiae [2] and -0.0158 with Saccharomyces cerevisiae [3].
Regarding `COCCN(C(=O)Cc1cccs1)C(C(=O)NCc1ccc(OC)cc1)c1ccc(C(C)C)cc1` (stereo not given), the “Relative Growth” value is reported as 0.0051 in the assay on Saccharomyces cerevisiae [1], 0.2007 with Saccharomyces cerevisiae [2] and 0.0044 with Saccharomyces cerevisiae [3].
For the compound `CCCN(CCC)CCCNC(=O)c1cc2c(-c3ccc(OC)c(OC)c3)nn(C)c2s1`, the “Relative Growth” value is given as -0.0982 with Saccharomyces cerevisiae [1], -0.061 in the assay with Saccharomyces cerevisiae [2] and -0.0057 in the assay with Saccharomyces cerevisiae [3].
The matching figures for `OC1=C2C(=Nc3ccccc3SC2c2ccc(Br)cc2)c2ccccc21` (stereo not given): 0.0198, 0.1502 and -0.0041.
As for `Cc1ccc(-c2cc3c(SCC(=O)Nc4cc(C(F)(F)F)ccc4Cl)nccn3n2)cc1`, the figures for the “Relative Growth” value in the assay with Saccharomyces cerevisiae [1], in the assay on Saccharomyces cerevisiae [2] and with Saccharomyces cerevisiae [3] were 0.117, -0.0739 and 0.0079, respectively.
Take `COc1ccccc1N1C(=N)SC(=Cc2ccc(OCc3ccccc3F)cc2)C1=O`: the “Relative Growth” value in the assay on Saccharomyces cerevisiae [1] was 0.0037; with Saccharomyces cerevisiae [2], -0.0753; with Saccharomyces cerevisiae [3], 0.0323.
`CCOc1cc(CNC(C)C(O)c2ccccc2)cc(Cl)c1OCC` (stereo not given): the “Relative Growth” value in the assay with Saccharomyces cerevisiae [1] is 0.088; in the assay with Saccharomyces cerevisiae [2] it was -0.0694; in the assay with Saccharomyces cerevisiae [3], -0.0689.
For `CCOc1ccccc1CNC(=O)C1c2ccccc2C(=O)N(CC(C)C)C1c1cccs1` (stereo not given), the “Relative Growth” value in the assay with Saccharomyces cerevisiae [1] is reported as 0.0472; in the assay on Saccharomyces cerevisiae [2], -0.1153; in the assay with Saccharomyces cerevisiae [3], -0.0674.
Turning to `CCOc1ccccc1CN1CCc2nc3cc(C(C)(C)C)nn3c(O)c2C1`, the figures for the “Relative Growth” value in the assay with Saccharomyces cerevisiae [1], with Saccharomyces cerevisiae [2] and with Saccharomyces cerevisiae [3] were -0.2912, -0.4424 and -0.6117, respectively.
The matching figures for `CCCCCCOC(=O)C1=C(C)NC(=O)NC1c1ccccc1F` (stereo not given): 0.2134, -0.2346 and -0.0098.
The matching figures for `Cc1ccc(CSCc2ccc(C(=O)NC3CC3)o2)cc1`: -0.0643, -0.1982 and 0.0613.

These data come from ChEMBL document CHEMBL3301546, “MMV Malaria Box yeast growth screening”.
